Assay results reported in patent US11865176B2, “Compositions and methods of modulating anti-tumor immunity” (Dana-Farber Cancer Institute, Inc., priority 2016, dated 2024).

Test system: PD-1-overexpressing Jurkat cells
Test: Small molecule screen: IL2 secretion (AlphaLISA) from stimulated PD-1-overexpressing Jurkat cells
Assay type: cell-based, human
Conditions: 3.3 μM compound; for Zscore_1 / Zscore_2: IL2 level, α-CD3/α-CD28/α-PD-1 beads; for Zscore_1: replicate 1; for Zscore_2: replicate 2; for Zscore_AVG: average of replicate Z scores
Method in brief: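 Cells (100,000/well) with compound at 3.3 μM final, stimulated by α-CD3/α-CD28/α-PD-1 Dynabeads at an 8:1 bead:cell ratio. IL2 in supernatants measured by AlphaLISA. Hits scored ≥3 SD from the mean of DMSO-treated, α-PD-1-bead-stimulated controls.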

Compound	Zscore_1	Zscore_2	Zscore_AVG
O=[N+]([O-])c1ccc(CNc2nc(NCc3cccc(C(F)(F)F)c3)nc3nc[nH]c23)cc1 [IP3K Inhibitor]	1.006	−0.0969	0.4547
CCCC(=O)Oc1ccc2[nH]c(C(=O)c3cc4ccccc4[nH]3)cc2c1 [PDGF Receptor Tyrosine Kinase Inhibitor II]	−0.7009	0.7754	0.03721
Nc1n[nH]c(N)c1N=Nc1ccc(O)cc1 [Cdk9 Inhibitor II]	−0.7951	0.1385	−0.3283
C[C@@H](N)[C@H]1CC[C@H](C(=O)Nc2ccncc2)CC1 [ROCK Inhibitor, Y-27632]	−3.269	−4.375	−3.822
O=C1NC(=O)/C(=C/c2ccc3nccnc3c2)S1 [PI 3-Kg Inhibitor]	0.8957	2.23	1.563
COc1cc2ncnc(Nc3ccc(O)c(Br)c3)c2cc1OC [JAK3 Inhibitor II]	−0.7783	−1.36	−1.069
CC(C)(C)c1cc(C=C(C#N)C#N)cc(Br)c1O [AG 1024]	0.3395	0.506	0.4228
COc1ccc(S(=O)(=O)Nc2ccccc2CN(C)C/C=C/c2ccc(Cl)cc2)cc1 [KN-92]	0.5356	0.3912	0.4634
COc1ccc(S(=O)(=O)N(CCO)c2ccccc2CN(C)C/C=C/c2ccc(Cl)cc2)cc1 [KN-93]	−0.2896	−2.889	−1.589
PIM1 Kinase Inhibitor IV	−1.455	−0.7294	−1.092
COc1ccc(OC)c2c(=S)c3ccccc3[nH]c12 [Cdk4 Inhibitor II, 625987]	0.5748	−1.274	−0.3496
NS(=O)(=O)c1ccc(N/N=C2\C(=O)Nc3ccc(Br)cc32)cc1 [Cdk2 Inhibitor II]	−0.2096	−0.6424	−0.426
CCOc1cc2ncnc(Nc3cccc(Br)c3)c2cc1OCC [Compound 56]	−1.072	−2.222	−1.647
CN1C(=O)/C(=C2\Nc3ccccc3\C2=N/O)c2ccc(Br)cc21 [GSK-3 Inhibitor IX, Control, MeBIO]	1.104	1.769	1.437
CCOc1nc(NC(=O)Cc2cc(OC)ccc2OC)cc(N)c1C#N [JNK Inhibitor VIII]	−1.284	−2.969	−2.126
CN(C)CCCn1cc(C2=C(c3c[nH]c4ccccc34)C(=O)NC2=O)c2ccccc21 [Bisindolylmaleimide I]	−9.431	−8.32	−8.875
Nc1ncnc2n[nH]c(Nc3ccc(F)cc3)c12 [MNK1 Inhibitor]	−2.022	−0.3911	−1.206
O=C1NC(=O)C(c2cn(CCCn3ccnc3)c3ccccc23)=C1Nc1ccccc1 [PKCb Inhibitor]	−3.512	−5.04	−4.276
Cc1cc(C(C)Nc2ccccc2)c2nc(N3CCOCC3)cc(=O)n2c1 (stereo not drawn) [PI 3-Kβ Inhibitor VI, TGX-221]	2.504	2.528	2.516

Compound	Zscore_1	Zscore_2	Zscore_AVG
CN(C)S(=O)(=O)c1ccc2c(c1)/C(=C/c1cc3c([nH]1)CCCC3)C(=O)N2 [SU6656]	1.733	1.333	1.533
Cc1nc(-c2ccccc2)c(-c2ccncc2)o1 [SC-68376]	−1.404	−0.2868	−0.8452
O=C1NC(=O)c2c1c1c3ccccc3n3c1c1c2c2ccccc2n1C1CCC3O1 [SB 218078]	−0.8723	−1.561	−1.217
CC[C@H](CO)Nc1nc(NCc2ccccc2O)c2ncn(C(C)C)c2n1 [Olomoucine II]	0.3445	2.103	1.224
CCN(CC)C(=O)c1ccc(Nc2nc(OCC3CCCCC3)c3[nH]cnc3n2)cc1 [Cdk2 Inhibitor IV, NU6140]	−4.843	−6.155	−5.499
N#C/C(=C/c1ccc(O)c(O)c1)C(=O)NCc1ccccc1 [AG 490]	−2.645	0.2008	−1.222
O=C1c2ccccc2-c2n[nH]c3cccc1c23 [JNK Inhibitor II]	0.4426	0.5814	0.512
O=c1cc(N2CCOCC2)oc2c(-c3ccccc3)cccc12 [LY 294002]	−1.451	0.6923	−0.3791
N/C(=N\[N+](=O)[O-])N/N=C\c1ccc(-c2cccc([N+](=O)[O-])c2)o1 [ERK Inhibitor III]	0.9783	2.555	1.767
O=C1NC(=O)c2cc(Nc3ccc(F)cc3)c(Nc3ccc(F)cc3)cc21 [PKCbII/EGFR Inhibitor]	−0.838	0.616	−0.111
Cl.Cl.N=C(N)NCCNS(=O)(=O)c1cccc2cnccc12 [HA 1004, Dihydrochloride]	0.08457	−0.6711	−0.2933
CO[C@H]1C[C@@H]2CC[C@@H](C)[C@@](O)(O2)C(=O)C(=O)N2CCCC[C@H]2C(=O)O[C@H]([C@H](C)C[C@@H]2CC[C@@H](O)[C@H](OC)C2)CC(=O)[C@H](C)/C=C(\C)[C@@H](O)[C@@H](OC)C(=O)[C@H](C)C[C@H](C)/C=C/C=C/C=C/1C [Rapamycin]	−1.883	−3.367	−2.625
NC(=O)Nc1sc(-c2ccc(F)cc2)cc1C(N)=O [IKK-2 Inhibitor IV]	−1.558	−4.19	−2.874
PIM1 Kinase Inhibitor II	−1.398	−0.8562	−1.127
CCCOc1ccc(/C=C2/SC(=O)NC2=O)cc1 [PIM1/2 Kinase Inhibitor VI]	−0.7695	−1.561	−1.165
CCCCCCCCCCCCCCCCn1cc[n+](Cc2ccccc2)c1C.[I-] [eEF-2 Kinase Inhibitor, NH125]	−4.759	−7.332	−6.046
COc1cc(OC)c(C=C2C(O)=Nc3ccccc32)c(OC)c1 [IC261]	−0.7866	−1.136	−0.9616
CC(C)N(CCC(=O)c1ccc2ccccc2c1)Cc1ccccc1 [JAK3 Inhibitor IV]	0.2022	0.908	0.5551
O=C1NC(=NCc2cccs2)S/C1=C\c1ccc2ncccc2c1 [Cdk1 Inhibitor IV, RO-3306]	−4.188	−2.228	−3.208
